Assay results published in ChEMBL document CHEMBL4419162, “FMO3 inhibitors for treating pain” (2013).
Activity calls are given as the source filed them.

Columns and labels:
Rattus norvegicus [1] = test: (§1) Antinociceptive activity in Sprague-Dawley rat model of chronic constriction injury-induced mono-neuropathic pain assessed as reduction in mechanical allodynia by measuring paw withdrawal threshold at 500 mg/kg, po administered as single dose and measured 30 mins to 24 hrs post dose by Von Frey's hairs assay; type: functional, organism-based
Rattus norvegicus [2] = test: as §1, with “50” for “500”; type: functional, organism-based
Rattus norvegicus [3] = test: Antinociceptive activity in Sprague-Dawley rat model of CFA-induced chronic inflammatory pain assessed as reduction in mechanical allodynia by measuring paw withdrawal threshold at 50 mg/kg, po administered as single dose and measured 30 mins to 24 hrs post dose by Von Frey's hairs assay; type: functional, organism-based
Rattus norvegicus [4] = test: Antinociceptive activity in Sprague-Dawley rat model of CFA-induced chronic inflammatory pain assessed as reduction in mechanical allodynia by measuring paw withdrawal threshold at 500 mg/kg, po administered as single dose and measured 30 mins to 24 hrs post dose by Von Frey's hairs assay; type: functional, organism-based
Rattus norvegicus [5] = test: as §1, with “1.8” for “500”; type: functional, organism-based
Rattus norvegicus [6] = test: Antinociceptive activity in Sprague-Dawley rat model of CFA-induced chronic inflammatory pain assessed as reduction in mechanical allodynia by measuring paw withdrawal threshold at 1.8 mg/kg, po administered as single dose and measured 30 mins to 24 hrs post dose by Von Frey's hairs assay; type: functional, organism-based
Rattus norvegicus [7] = test: as §1, with “60” for “500”; type: functional, organism-based
Rattus norvegicus [8] = test: Antinociceptive activity in Sprague-Dawley rat model of CFA-induced chronic inflammatory pain assessed as reduction in mechanical allodynia by measuring paw withdrawal threshold at 20 mg/kg, po administered as single dose and measured 30 mins to 24 hrs post dose by Von Frey's hairs assay; type: functional, organism-based
Rattus norvegicus [9] = test: as §1, with “20” for “500”; type: functional, organism-based
Rattus norvegicus [10] = test: Antinociceptive activity in Sprague-Dawley rat model of CFA-induced chronic inflammatory pain assessed as reduction in mechanical allodynia by measuring paw withdrawal threshold at 2 mg/kg, po administered as single dose and measured 30 mins to 24 hrs post dose by Von Frey's hairs assay; type: functional, organism-based
Rattus norvegicus [11] = test: as §1, with “2” for “500”; type: functional, organism-based
[12] = target: 3',5'-cyclic-AMP phosphodiesterase 4D (Homo sapiens, UniProt Q08499); test: Inhibition of human PDE4D catalytic domain using [3H]-cAMP or [3H]-cGMP incubated for 30 mins by scintillation counting method
Rattus norvegicus [13] = test: as §1, with “3” for “500”; type: functional, organism-based
Rattus norvegicus [14] = test: Antinociceptive activity in Sprague-Dawley rat model of CFA-induced chronic inflammatory pain assessed as reduction in mechanical allodynia by measuring paw withdrawal threshold at 3 mg/kg, po administered as single dose and measured 30 mins to 24 hrs post dose by Von Frey's hairs assay; type: functional, organism-based
Rattus norvegicus [15] = test: Antinociceptive activity in Sprague-Dawley rat model of CFA-induced chronic inflammatory pain assessed as reduction in mechanical allodynia by measuring paw withdrawal threshold at 10 mg/kg, po administered as single dose and measured 30 mins to 24 hrs post dose by Von Frey's hairs assay; type: functional, organism-based
Rattus norvegicus [16] = test: as §1, with “200” for “500”; type: functional, organism-based
Rattus norvegicus [17] = test: Antinociceptive activity in Sprague-Dawley rat model of CFA-induced chronic inflammatory pain assessed as reduction in mechanical allodynia by measuring paw withdrawal threshold at 60 mg/kg, po administered as single dose and measured 30 mins to 24 hrs post dose by Von Frey's hairs assay; type: functional, organism-based
Rattus norvegicus [18] = test: Antinociceptive activity in Sprague-Dawley rat model of CFA-induced chronic inflammatory pain assessed as reduction in mechanical allodynia by measuring paw withdrawal threshold at 200 mg/kg, po administered as single dose and measured 30 mins to 24 hrs post dose by Von Frey's hairs assay; type: functional, organism-based

3',5'-cyclic-AMP phosphodiesterase 4D, sequence (Q08499 whole entry, the tested form may be a part): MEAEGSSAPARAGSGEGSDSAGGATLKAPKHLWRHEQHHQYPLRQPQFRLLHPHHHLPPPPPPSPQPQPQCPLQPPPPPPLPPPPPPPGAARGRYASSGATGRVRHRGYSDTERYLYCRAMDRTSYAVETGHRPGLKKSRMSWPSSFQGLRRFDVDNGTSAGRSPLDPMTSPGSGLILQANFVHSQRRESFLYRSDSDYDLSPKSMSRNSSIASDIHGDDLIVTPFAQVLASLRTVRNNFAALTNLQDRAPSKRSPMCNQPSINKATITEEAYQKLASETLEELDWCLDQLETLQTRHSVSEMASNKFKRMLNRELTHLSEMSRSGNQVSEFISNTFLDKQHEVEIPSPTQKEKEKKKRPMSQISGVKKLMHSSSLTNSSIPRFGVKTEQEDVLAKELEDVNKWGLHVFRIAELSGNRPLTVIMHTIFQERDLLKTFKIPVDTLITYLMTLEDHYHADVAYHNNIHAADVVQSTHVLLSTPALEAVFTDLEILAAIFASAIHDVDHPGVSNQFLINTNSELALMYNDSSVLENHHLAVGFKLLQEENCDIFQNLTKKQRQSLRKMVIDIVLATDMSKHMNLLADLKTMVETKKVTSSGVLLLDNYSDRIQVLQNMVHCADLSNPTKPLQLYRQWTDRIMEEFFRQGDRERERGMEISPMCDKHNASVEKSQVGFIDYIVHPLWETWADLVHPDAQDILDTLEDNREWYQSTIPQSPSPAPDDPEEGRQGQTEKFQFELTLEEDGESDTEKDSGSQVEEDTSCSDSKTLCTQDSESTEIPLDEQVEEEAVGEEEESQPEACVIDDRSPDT

In the case of `C[C@H](Cn1cnc2c(N)ncnc21)OCP(=O)(O)O`, the Activity (Rattus norvegicus [1]) is reported as “Active”, the Activity (Rattus norvegicus [2]) is reported as “Active” and the Activity (Rattus norvegicus [3]) is reported as “Active”. For the same compound, the Activity (Rattus norvegicus [4]) was “Active”.

In the case of `O=C(Nc1c(Cl)cncc1Cl)c1ccc(OC(F)F)c(OCC2CC2)c1`, the Activity (Rattus norvegicus [5]) is reported as “Active” and the Activity (Rattus norvegicus [6]) is reported as “Active”.

`CC(C)C[C@H](CN)CC(=O)O` was tested, and the Activity (Rattus norvegicus [7]) was “Active”.

For `Nc1ncnc2c1ncn2CCOCP(=O)(O)O`, the Activity (Rattus norvegicus [8]) was “Active”, the Activity (Rattus norvegicus [9]) was “Active” and the Activity (Rattus norvegicus [10]) was “Active”. For the same compound, the Activity (Rattus norvegicus [11]) was “Active”.

`COc1cc2c(cc1OC)[C@@H]1CN(C)CC[C@@H]1N=C2c1ccc(NS(=O)(=O)c2ccc(C)cc2)cc1` gave an IC50 [12] of 30 nM.

In the case of `COc1ccc([C@]2(C#N)CC[C@@H](C(=O)O)CC2)cc1OC1CCCC1`, the Activity (Rattus norvegicus [13]) is reported as “Active” and the Activity (Rattus norvegicus [14]) is reported as “Active”.

`COc1ccc2c(c1)c(CC(=O)O)c(C)n2C(=O)c1ccc(Cl)cc1` was tested, and the Activity (Rattus norvegicus [15]) was “Active”.

With `COc1cc(-c2ccc(=O)[nH]n2)ccc1OC(F)F` the Activity (Rattus norvegicus [8]) was “Active” and the Activity (Rattus norvegicus [9]) was “Active”.

In the case of `COc1cc(Nc2c(C#N)cnc3cc(OCCCN4CCN(C)CC4)c(OC)cc23)c(Cl)cc1Cl`, the Activity (Rattus norvegicus [16]) is reported as “Active”, the Activity (Rattus norvegicus [17]) is reported as “Active” and the Activity (Rattus norvegicus [7]) is reported as “Active”. For the same compound, the Activity (Rattus norvegicus [18]) was “Active”.
